The values below come from patent publication US12053459B2, “CDK2 inhibitors and methods of using the same” (Cedilla Therapeutics, Inc., priority 2021, dated 2024).

The term IC50 denotes the concentration that gives 50% inhibition.

Assay [1] addresses CDK2/Cyclin E1(14-475) (Homo sapiens, UniProt P24941). Description: Caliper LabChip EZ Reader mobility shift assay, inhibition of CDK2/Cyclin E1 activity. In kind it is biochemical. Conditions: class symbols A-D. On the procedure: Inhibition of CDK2/Cyclin E1 activity in the presence of compounds of the present disclosure was evaluated using a Caliper LabChip® EZ Reader mobility shift assay. In the assay, activated CDK2/Cyclin E1 catalyzes the phosphorylation of a fluorescently tagged peptide 5-FAM-QSPKKG-CONH2 (PerkinElmer, FL Peptide 18) which induces a difference in capillary electrophoresis mobility. The peptide substrate and product were measured, and the conversion ratio was used to determine the inhibition (as % activity and IC50 values) of CDK2/Cyclin E1. Reactions contained 50 mM HEPES pH 7.5, 10 mM MgCl2, 1 mM EDTA, 2 mM DTT, 0.01% Brij35, 0.5 mg/mL BSA, 0.1% DMSO, 2.5 nM CDK2/Cyclin E1(14-475), 100 μM ATP, and 1.5 μM fluorescent peptide substrate.
Dose titrations of inhibitors in 100% DMSO were combined with 3.25 nM CDK2/Cyclin E1(14-475) and 130 μM of ATP in reaction buffer. The mixtures were incubated for 30 minutes before the addition of fluorescent peptide substrate to initiate the kinase reaction. The final conditions were 2.5 nM CDK2/Cyclin E1(14-475), 100 μM ATP, and 1.5 μM fluorescent peptide. The reactions were stopped after 100 minutes with the addition of EDTA (6 mM final EDTA concentration). The stopped reactions were analyzed on a Caliper LabChip® EZ Reader II. The conversion ratios were normalized to yield % activity, plotted against compound concentration, and fit to a four-parameter equation to determine the IC50 for each compound.

For assay [2], the system named is Kuramochi cells. Description: BrdU cell proliferation assay (colorimetric ELISA), Kuramochi cells. The note with it: class symbols A-D. The assay is classed as cell-based. On the procedure:
A BrdU assay was used as a measure of proliferation based on the DNA replication process of proliferating cells. BrdU, a pyrimidine analog, is added to the cell culture and incorporated into the DNA of proliferating cells. The presence of the BrdU analog was then measured through a colorimetric ELISA. After fixation and permeabilization of cells, peroxidase-conjugated antibody recognizing BrdU is added and allowed to incubate, followed by thorough washing to remove unbound antibody. In order to quantify the amount of bound antibody, peroxidase substrate is added and produces a color that can be measured at 450 nm.
On day −1, Kuramochi cells (Sekisui XenoTech JCRB0098) were seeded at 2,000 cells/well in columns 2-12 of a 96 well plate (Corning, CLS3596) in 150 uL media and allowed to adhere overnight at 37 degree with 5% CO2. In order to assess specificity of the compounds, Kuramochi RB^KO cells were also plated and treated, as RB^KO cells were not expected to show a proliferative response to CCNE/CDK specific inhibitors.
On day 0, the source plate was prepared by adding 10 mM compounds and performing 3-fold serial dilutions for a 4-point dose response of each compound. Using a multichannel pipette, 2 uL of the contents of the source plate were stamped into an intermediate plate with 500 uL of RPMI 1640 Media, GlutaMAX Supplement (Life Technologies, 61870127) in each well of a Nunc 96 DeepWell™ plate, non-treated 96 DeepWell plate, 2 mL/well, sterile, natural, 60/cs (Sigma Z717274) and mixed thoroughly. 50 uL from row A of this intermediate plate were added to rows A-H of one plate of previously seeded Kuramochi cells, and each subsequent row of the intermediate plate was added to a full plate of cells.
On day 4, the plates were developed using the BrdU ELISA Cell Proliferation Assay according to manufacturer's instructions (Roche, 11647229001). Briefly, BrdU was diluted 1:100 in Gibco®, Opti-MEM® and 20 μL/well was added, shaken for 10 minutes at 350 rpm, and then returned to the incubator for 1 hour. Following incubation, the medium was discarded, and the cells were fixed by adding 200 μL of Fix/Denature solution. The anti-BrdU peroxidase antibody was diluted 1:1000 in OptiMEM, added at 100 μL/well, and incubated while shaking (350 rpm) for one hour. Three washes with PBS were performed to remove any unbound antibody, followed by the addition of 100 μL of substrate solution to each well. […] was then added to halt the reaction, and plates were read out using an Envision spectrophotometer (Perkin Elmer) set to read 450 nm absorbance. Background absorbance values from empty wells were subtracted from all samples and then normalized to DMSO treated wells.
(In an ELISA, binding on a coated surface is turned into a signal by an enzyme label.)

For the compound `CNC(=O)[C@H](CCCc1ccccc1)NC(=O)C1CN(C(=O)Cc2c[nH]c3cc(Cl)ccc23)CC2CN(C(=O)c3cc(C)n(C)n3)CC21` (stereo partly shown) [I-39], the IC50 in assay [1] and in assay [2] was more than 10 µM in each case.
Turning to `CNC(=O)[C@H](CCCc1ccccc1)NC(=O)C1CN(C(=O)Cc2c[nH]c3cc(Cl)ccc23)CC2CN(C(=O)c3cn4ccncc4n3)CC21` (stereo partly shown) [I-40], the IC50 in assay [1] and in assay [2] was more than 10 µM throughout.
Turning to `CCOc1cnc(C(=O)N2CC3CN(C(=O)Cc4c[nH]c5cc(Cl)ccc45)CC(C(=O)N[C@@H](CCCc4ccccc4)C(=O)NC)C3C2)cn1` (stereo partly shown) [I-41], the IC50 in assay [1] and in assay [2] was more than 10 µM each time.
On to `CNC(=O)[C@H](CCCc1ccccc1)NC(=O)C1CN(C(=O)Cc2c[nH]c3cc(Cl)ccc23)CC2CN(C(=O)c3ccc4cccn4c3)CC21` (stereo partly shown) [I-43], for which the half-inhibitory concentration (IC50) in assay [1] and in assay [2] was more than 10 µM in each case.
As to `CNC(=O)[C@H](CCCc1ccccc1)NC(=O)C1CN(C(=O)Cc2c[nH]c3cc(Cl)ccc23)CC2CN(C(=O)c3cnc(C4CC4)nc3)CC21` (stereo partly shown) [I-44], the concentration for half-maximal inhibition (IC50) in assay [1] and in assay [2] was more than 10 µM in each case.
Consider `CNC(=O)[C@H](CCCc1ccccc1)NC(=O)C1CN(C(=O)Cc2c[nH]c3cc(Cl)ccc23)CC2CN(C(=O)c3ccc4c(c3)CNC4=O)CC21` (stereo partly shown) [I-45], for which the IC50 in assay [1] and in assay [2] was more than 10 µM in each case.
As to `CNC(=O)[C@H](CCCc1ccccc1)NC(=O)C1CN(C(=O)Cc2c[nH]c3cc(Cl)ccc23)CC2CN(C(=O)c3ccc(OC(C)C)c(F)c3)CC21` (stereo partly shown) [I-46], the IC50 in assay [1] was 0.5 to 5 µM; in assay [2] it was more than 10 µM.
For `CNC(=O)[C@H](CCCc1ccccc1)NC(=O)C1CN(C(=O)Cc2c[nH]c3cc(Cl)ccc23)CC2CN(C(=O)c3nn(C)c4ccccc34)CC21` (stereo partly shown) [I-47] the same measures were more than 10 µM and more than 10 µM.
For `CNC(=O)[C@H](CCCc1ccccc1)NC(=O)C1CN(C(=O)Cc2c[nH]c3cc(Cl)ccc23)CC2CN(C(=O)c3c4ccccc4nn3C)CC21` (stereo partly shown) [I-48] the same measures were more than 10 µM and more than 10 µM.
For `CNC(=O)[C@H](CCCc1ccccc1)NC(=O)C1CN(C(=O)Cc2c[nH]c3cc(Cl)ccc23)CC2CN(C(=O)c3ccc(CC(C)C)cc3)CC21` (stereo partly shown) [I-52] the same measures were 5 to 10 µM and more than 10 µM.
With `CNC(=O)[C@H](CCCc1ccccc1)NC(=O)C1CN(C(=O)Cc2c[nH]c3cc(Cl)ccc23)CC2CN(C(=O)c3ccc(NC(=O)C4CC4)c(OC)c3)CC21` (stereo partly shown) [I-54], the IC50 in assay [1] and in assay [2] was more than 10 µM throughout.
As to `CNC(=O)[C@H](CCCc1ccccc1)NC(=O)C1CN(C(=O)Cc2c[nH]c3cc(Cl)ccc23)CC2CN(C(=O)c3cnn(C)c3)CC21` (stereo partly shown) [I-55], the IC50 in assay [1] and in assay [2] was more than 10 µM in each case.
With `CNC(=O)[C@H](CCCc1ccccc1)NC(=O)C1CN(C(=O)Cc2c[nH]c3cc(Cl)ccc23)CC2CN(C(=O)c3cc(C)[nH]n3)CC21` (stereo partly shown) [I-56], the IC50 in assay [1] was 0.5 to 5 µM; in assay [2], more than 10 µM.
For `CNC(=O)[C@H](CCCc1ccccc1)NC(=O)C1CN(C(=O)Cc2c[nH]c3cc(Cl)ccc23)CC2CN(C(=O)c3ncccn3)CC21` (stereo partly shown) [I-57], in that order: more than 10 µM and more than 10 µM.
For `CCc1ccc(C(=O)N2CC3CN(C(=O)Cc4c[nH]c5cc(Cl)ccc45)CC(C(=O)N[C@@H](CCCc4ccccc4)C(=O)NC)C3C2)nc1` (stereo partly shown) [I-58] the same measures were more than 10 µM and more than 10 µM.
For `CNC(=O)[C@H](CCCc1ccccc1)NC(=O)C1CN(C(=O)Cc2c[nH]c3cc(Cl)ccc23)CC2CN(C(=O)c3ccc(-c4cncnc4)cc3)CC21` (stereo partly shown) [I-59], the half-maximal inhibitory concentration (IC50) in assay [1] and in assay [2] was more than 10 µM in each case.
Turning to `CNC(=O)[C@H](CCCc1ccccc1)NC(=O)C1CN(C(=O)Cc2c[nH]c3cc(Cl)ccc23)CC2CN(C(=O)c3cncc(C)n3)CC21` (stereo partly shown) [I-60], the IC50 in assay [1] and in assay [2] was more than 10 µM each time.
`CNC(=O)[C@H](CCCc1ccccc1)NC(=O)C1CN(C(=O)Cc2c[nH]c3cc(Cl)ccc23)CC2CN(C(=O)c3cc4ccccc4[nH]3)CC21` (stereo partly shown) [I-61]: the IC50 in assay [1] and in assay [2] was more than 10 µM in each case.
For the compound `CNC(=O)[C@H](CCCc1ccccc1)NC(=O)C1CN(C(=O)Cc2c[nH]c3cc(Cl)ccc23)CC2CN(C(=O)c3ccc4c(N)n[nH]c4c3)CC21` (stereo partly shown) [I-65], the IC50 in assay [1] and in assay [2] was more than 10 µM throughout.
In the case of `CNC(=O)[C@H](CCCc1ccccc1)NC(=O)C1CN(C(=O)Cc2c[nH]c3cc(Cl)ccc23)CC2CN(C(=O)c3ccc(NS(C)(=O)=O)c(OC)c3)CC21` (stereo partly shown) [I-66], the IC50 in assay [1] and in assay [2] was more than 10 µM in each case.
Consider `CNC(=O)[C@H](CCCc1ccccc1)NC(=O)C1CN(C(=O)Cc2c[nH]c3cc(Cl)ccc23)CC2CN(C(=O)c3ccc(NC(=O)CC4CC4)c(OC)c3)CC21` (stereo partly shown) [I-69], for which the IC50 in assay [1] and in assay [2] was more than 10 µM throughout.
On to `CNC(=O)[C@H](CCCc1ccccc1)NC(=O)C1CN(C(=O)Cc2c[nH]c3cc(Cl)ccc23)CC2CN(C(=O)c3cnc(-c4ccccc4)s3)CC21` (stereo partly shown) [I-70], for which the IC50 in assay [1] and in assay [2] was more than 10 µM throughout.
Regarding `CNC(=O)[C@H](CCCc1ccccc1)NC(=O)C1CN(C(=O)Cc2c[nH]c3cc(Cl)ccc23)CC2CN(C(=O)c3cc(-c4ccccc4)n(C)n3)CC21` (stereo partly shown) [I-71], the concentration for half-maximal inhibition (IC50) in assay [1] and in assay [2] was more than 10 µM throughout.
In the case of `CNC(=O)[C@H](CCCc1ccccc1)NC(=O)C1CN(C(=O)Cc2c[nH]c3cc(Cl)ccc23)CC2CN(C(=O)c3ccc4[nH]c(=O)oc4c3)CC21` (stereo partly shown) [I-72], the half-inhibitory concentration (IC50) in assay [1] and in assay [2] was more than 10 µM in each case.
For the compound `CNC(=O)[C@H](CCCc1ccccc1)NC(=O)C1CN(C(=O)Cc2c[nH]c3cc(Cl)ccc23)CC2CN(C(=O)c3ccc4c(c3)oc(=O)n4C)CC21` (stereo partly shown) [I-73], the IC50 in assay [1] and in assay [2] was more than 10 µM throughout.
As to `CNC(=O)[C@H](CCCc1ccccc1)NC(=O)C1CN(C(=O)Cc2c[nH]c3cc(Cl)ccc23)CC2CN(C(=O)c3c[nH]c(-c4ccccc4)n3)CC21` (stereo partly shown) [I-74], the IC50 in assay [1] and in assay [2] was more than 10 µM each time.
As for `CNC(=O)[C@H](CCCc1ccccc1)NC(=O)C1CN(C(=O)Cc2c[nH]c3cc(Cl)ccc23)CC2CN(C(=O)c3ccc4oc(=O)[nH]c4c3)CC21` (stereo partly shown) [I-75], the IC50 in assay [1] and in assay [2] was more than 10 µM throughout.
As to `CNC(=O)[C@H](CCCc1ccccc1)NC(=O)C1CN(C(=O)Cc2c[nH]c3cc(Cl)ccc23)CC2CN(C(=O)c3ccc(C)cn3)CC21` (stereo partly shown) [I-78], the half-inhibitory concentration (IC50) in assay [1] and in assay [2] was more than 10 µM in each case.
As for `CNC(=O)[C@H](CCCc1ccccc1)NC(=O)C1CN(C(=O)Cc2c[nH]c3cc(Cl)ccc23)CC2CN(C(=O)c3ccc(-c4cccnc4)cc3)CC21` (stereo partly shown) [I-79], the IC50 was 5 to 10 µM in assay [1] and more than 10 µM in assay [2].
For `CNC(=O)[C@H](CCCc1ccccc1)NC(=O)C1CN(C(=O)Cc2c[nH]c3cc(Cl)ccc23)CC2CN(C(=O)c3ccc4cccnc4c3)CC21` (stereo partly shown) [I-80] the same measures were more than 10 µM and more than 10 µM.
For `CNC(=O)[C@H](CCCc1ccccc1)NC(=O)C1CN(C(=O)Cc2c[nH]c3cc(Cl)ccc23)CC2CN(C(=O)c3ccc(OC(F)(F)F)c(OC)c3)CC21` (stereo partly shown) [I-82], in that order: 0.5 to 5 µM and 5 to 10 µM.
Consider `CNC(=O)[C@H](CCCc1ccccc1)NC(=O)C1CN(C(=O)Cc2c[nH]c3cc(Cl)ccc23)CC2CN(C(=O)c3cc4c(c(OC)c3)OC(C)(C)C4)CC21` (stereo partly shown) [I-83], for which the IC50 is not above 0.5 µM in assay [1] and more than 10 µM in assay [2].
